Values after ≈ are worked out from the molar mass of the structure shown. Read-outs that look alike come from different tables or passages of the source.
How the values were obtained:
[1] = Solubility in water
[2] = test system: rhinovirus HGP; test: Inhibition of viral cytopathogenic effect (rhinovirus HGP in HeLa cells); type: cell-based; settings: Enterovirus, 48 h, read-out: Minimal Inhibitory Concentration against rhinovirus HGP
Procedure: Inhibition of viral cytopathogenic effect
A suspension of HeLa cells (6×10^4) was mixed with rhinovirus HGP (3×10^3 PFU) (plaque forming units) and was plated in a microtest plate where serially diluted compounds to be tested were contained. The cells were then cultured with Eagle's minimum essential medium containing 2% calf serum, 1% tryptose phosphate broth, 100 μg/ml of streptomycin sulfate and 20 unit/ml of penicillin G. Viral c.p.e. (cytopathogenic effect) was observed by a microscope after 2 days culture at 33° C
The antiviral activity of the tested compounds is expressed by the minimal inhibitory concentration at which dose viral c.p.e. is inhibited by 50% as compared to the control culture.

[3] = Acute toxicity in mice; design: species or system ddy mice; settings: mouse, in vivo, day 21
[4] = test system: Coxsackie virus B1; test: Antiviral activity against lethal infection of Coxsackie virus B1 in mice; type: in vivo, ddy mice; settings: up to 21 days
Procedure: The antiviral activities of compounds of the invention were tested against lethal infection of Coxsackie virus B1 in mice. ddy Mice weighing about 15 g were infected intraperitoneally (i.p.) by about LD50 of the virus. The infected mice were then administered 4 times with the compounds either by oral (p.o.) or intravenous (i.v.) route at -2, 7, 22 and 31 hrs. after infection. The survivals were recorded up to 21 days.

[5] = ip, i.p. single dose, ddy mice 15 ~ 20 g, dissolved in dimethylsulfoxide, read-out: LD50, i.p. route
[6] = po, ddy mice, suspended in 0.5% carboxymethyl cellulose, read-out: LD50, p.o. route

Structure (SMILES)	soluble in water [1]	IC50 [2]	LD50 at 504 h [3, 5]	LD50 at 504 h [3, 6]	% Survival ([4]; 5 mg/kg × 4 i.v.)	% Survival ([4]; 10 mg/kg × 4 i.v.)	% Survival ([4]; 20 mg/kg × 4 p.o.)	% Survival ([4]; 40 mg/kg × 4 p.o.)	% Survival ([4]; 80 mg/kg × 4 p.o.)
COc1cc(OC)c(C(=O)/C=C/c2ccc3c(c2)OCO3)c(OP(=O)(O)O)c1 [2',4'-dimethoxy-3,4-(methylenedioxy)-6'-(phosphonooxy)chalcone]	soluble in water	0.06 µg/mL (≈ 0.147 µM)	> 500 mg/kg	> 1000 mg/kg					
COc1cc(OC)c(C(=O)/C=C/c2ccc(C)o2)c(OP(=O)(O)O)c1 [2',4'-dimethoxy-3-(5-methyl-2-furyl)-6'-(phosphonooxy)acrylophenone]	soluble in water	0.04 to 0.1 µg/mL (≈ 0.109 to 0.272 µM)	> 500 mg/kg	> 1200 mg/kg					
COc1cc(OC)c(C(=O)/C=C/c2ccc(SC)cc2)c(OP(=O)(O)O)c1 [2',4'-dimethoxy-4-(methylthio)-6'-(phosphonooxy)chalcone]	soluble in water	0.02 µg/mL (≈ 0.0487 µM)	> 500 mg/kg	> 1000 mg/kg					
COc1cc(OC)c(C(=O)/C=C/c2ccc(C)cc2)c(OP(=O)(O)O)c1 [2',4'-dimethoxy-4-methyl-6'-(phosphonooxy)chalcone]	soluble in water	0.02 µg/mL (≈ 0.0529 µM)	> 500 mg/kg	> 2000 mg/kg					
COc1cc(OC)c(C(=O)/C=C/c2cccs2)c(OP(=O)(O)O)c1 [2',4'-dimethoxy-6'-(phosphonooxy)-3-(2-thienyl)acrylophenone]	soluble in water	0.04 to 0.1 µg/mL (≈ 0.108 to 0.27 µM)	> 500 mg/kg	> 1000 mg/kg					
COc1ccc(/C=C/C(=O)c2c(OC)cc(OC)cc2OC(=O)c2ccc(OC)cc2)cc1 [2',4,4'-trimethoxy-6'-(4-methoxybenzoyloxy)chalcone]		0.03 to 0.1 µg/mL (≈ 0.0669 to 0.223 µM)	> 500 mg/kg	> 1000 mg/kg					
COc1ccc(/C=C/C(=O)c2c(OC)cc(OC)cc2OP(=O)(O)O)cc1 [2',4,4'-trimethoxy-6'-(phosphonooxy)chalcone]	soluble in water	0.03 to 0.1 µg/mL (≈ 0.0761 to 0.254 µM)	> 500 mg/kg	> 1000 mg/kg	20%	60%	10%	50%	70%
CC[N+](CC)(CC)CC(=O)Oc1cc(OC)cc(OC)c1C(=O)/C=C/c1ccc(OC)cc1.[Cl-] [2',4,4'-trimethoxy-6'-(triethylammonioacetoxy) chalcone chloride]	soluble in water	0.01 µg/mL	180 mg/kg	> 1000 mg/kg					
COc1ccc(/C=C/C(=O)c2c(OC)cc(OC)cc2OC(=O)c2ccc(OC)cc2OC)cc1 [2'-(2,4-dimethoxybenzoyloxy)-4,4',6'-trimethoxychalcone]		0.03 to 0.1 µg/mL (≈ 0.0627 to 0.209 µM)	> 500 mg/kg	> 1000 mg/kg					
COc1ccc(/C=C/C(=O)c2c(OC)cc(OC)cc2O[C@@H]2O[C@H](COC(C)=O)[C@@H](OC(C)=O)[C@H](OC(C)=O)[C@H]2NC(C)=O)cc1 [2'-(2-acetamido-2-deoxy-3,4,6-tri-O-acetyl-β-D-glucopyranosyloxy)-4,4',6'-trimethoxychalcone]		0.1 to 0.3 µg/mL (≈ 0.155 to 0.466 µM)	> 500 mg/kg	> 2000 mg/kg					
COc1ccc(/C=C/C(=O)c2c(OC)cc(OC)cc2O[C@@H]2O[C@H](CO)[C@@H](O)[C@H](O)[C@H]2NC(C)=O)cc1 [2'-(2-acetamido-2-deoxy-β-D-glucopyranosyloxy)-4,4',6'-trimethoxychalcone]	soluble in water	3 to 10 µg/mL (≈ 5.8 to 19.3 µM)	> 300 mg/kg	> 2000 mg/kg					
COc1ccc(/C=C/C(=O)c2c(OC)cc(OC)cc2OC(=O)c2ccccc2)cc1 [2'-(benzoyloxy)-4,4',6'-trimethoxychalcone]		0.03 to 0.1 µg/mL (≈ 0.0717 to 0.239 µM)	> 500 mg/kg	> 1000 mg/kg					
COc1ccc(/C=C/C(=O)c2c(OC)cc(OC)cc2OC(=O)OCc2ccccc2)cc1 [2'-(benzyloxycarbonyloxy)-4,4',6'-trimethoxychalcone]		0.01 to 0.03 µg/mL (≈ 0.0223 to 0.0669 µM)	> 500 mg/kg	> 1000 mg/kg					
COc1ccc(/C=C/C(=O)c2c(OC)cc(OC)cc2OC(=O)c2ccco2)cc1 [2'-(furoyloxy)-4,4',6'-trimethoxychalcone]		0.03 µg/mL (≈ 0.0735 µM)	> 500 mg/kg	> 1000 mg/kg					
CCOc1cc(OC)cc(OP(=O)(O)O)c1C(=O)/C=C/c1ccc(OC)cc1 [2'-ethoxy-4,4'-dimethoxy-6'-(phosphonooxy)chalcone]	soluble in water	0.02 µg/mL (≈ 0.049 µM)	> 500 mg/kg	> 1000 mg/kg				30%	
COCOc1ccc(/C=C/C(=O)c2c(O)cc(OC)cc2OC)cc1 [2'-hydroxy-4',6'-dimethoxy-4-(methoxymethoxy)chalcone]		0.03 to 0.1 µg/mL (≈ 0.0871 to 0.29 µM)	> 500 mg/kg	> 1000 mg/kg					
COc1cc(O)c(C(=O)/C=C/c2ccc3[nH]cnc3c2)c(OC)c1 [3-(5-benzimidazolyl)-2'-hydroxy-4',6'-dimethoxyacrylophenone]		0.1 to 0.3 µg/mL (≈ 0.308 to 0.925 µM)	> 100 mg/kg	> 1000 mg/kg					
CCOc1cc(OC)c(C(=O)/C=C/c2ccc(OC)cc2)c(OP(=O)(O)O)c1 [4'-ethoxy-2',4-dimethoxy-6'-(phosphonooxy)chalcone]	soluble in water	0.03 µg/mL (≈ 0.0735 µM)	> 500 mg/kg	> 2000 mg/kg					
COc1cc(O)c(C(=O)/C=C/c2ccc(OC(C)=O)cc2)c(OC)c1 [4-acetoxy-2'-hydroxy-4',6'-dimethoxychalcone]		0.3 µg/mL (≈ 0.876 µM)	> 500 mg/kg	> 1000 mg/kg					
CCOc1ccc(/C=C/C(=O)c2c(OC)cc(OC)cc2OP(=O)(O)O)cc1 [4-ethoxy-2',4'-dimethoxy-6'-(phosphonooxy)chalcone]	soluble in water	0.006 to 0.02 µg/mL (≈ 0.0147 to 0.049 µM)	> 500 mg/kg	> 1000 mg/kg					
